Measured values: patent US7056693B2 (priority 1998, dated 2006)

System: National Cancer Institute's 60 cell line
Assay type: cell-based

## 2-(2′-amino-3′-methoxyphenyl)-oxanaphthalen-4-one [PDO9859]
  Activity profile in the 60 cell line database compared with LF: activity profile that is similar to LF
